# Key:
# MDA-MB-231 cells = test: TNBC cell invasion, Transwells coated with Matrigel; type: cell-based; details: 10 μM, 24-72 hours
# Method: FIGS. 2A and 2B are graphs showing the effect of VMY-BC-1 on TNBC cells. […] The percentage of cells crossing the chamber is presented as the mean±SEM. *P<0.05.
# Effect of VMY-BC-1 on Triple Negative Breast Cancer Cell Lines A trans-stilbene boronic acid analog, VMY-BC-1, was tested against a TNBC cell line.
# ULK1 [1] = test: Western blot of autophagy proteins in MDA-MB-231 cells; type: cell-based; details: 10 μM, MDA-MB-231, different time points
# Method: FIG. 6 is a Western blot of autophagy proteins in TNBC cells treated with vehicle (control), VMY-BC-1, or Rapamycin. Western blot is shown for p-ULK1, LC3 A/B, and cleaved PARP.
# To identify the functional target of VMY-BC-1, preliminary cell viability assays were carried out using siRNA to knock down each of the 10 identified binding proteins. […] Considering that that low ULK1 expression is associated with TNBC disease progression (Tang et al., Breast Cancer Res. Treat. 134:549-560, 2012) and autophagy controls the level of various DNA repair and checkpoint proteins in the DNA damage response pathway (Czarny et al., Int. J. Mol. Sci. 16:2641-2662, 2015; Gomes et al., Int. J. Mol. Sci. 18:2351, 2017), ULK1 activity in response to VMY-BC-1 was investigated. Protein extracts were made from MDA-MB-231 cells treated with vehicle control, VMY-BC-1 (10 μM), and Rapamycin (200 nM) at different time points.
# [2] = In vivo ADME/plasma pharmacokinetics in male CD1 mice
# Method: FIG. 8 is a graph showing plasma pharmacokinetics of VMY-BC-1 in vivo. Concentrations are expressed as the mean±SEM.
# In vivo ADME characteristics were determined in male CD1 mice following VMY-BC-1 administration at 1 mg/kg intravenously and 25 mg/kg and 100 mg/kg orally (FIG. 8). […] Sustained oral absorption following the 100 mg/kg oral administration indicated solubility was not limited oral absorption.
# [3] = test system: MDA-MB-231 tumor xenografts; test: MDA-MB-231 tumor xenograft efficacy; type: in vivo, athymic nude mice
# Method: To evaluate the anti-tumor efficacy of VMY-BC-1 in vivo, MDA-MB-231 tumor xenografts were established in the flanks of athymic nude mice. 5×10^6 MDA-MB-231 TNBC cells in 1×HBSS with 1:1 Matrigel® were implanted subcutaneously in the flank of 5-6 week old female athymic nude mice (CrTac:Ncr-Foxn1^nu; Taconic Biosciences, India). Mice (n=8) were treated with vehicle (2% (v/v) Tween® 80+98% (v/v) of 0.5% (w/v) hydroxypropyl methylcellulose (HPMC) in water) or VMY-BC-1 75 mg/kg PO daily for 14 days. The dose volume was 10 mL/kg. Tumor volume, tumor growth inhibition (TGI), body weight, and clinical signs were monitored. Tumor growth was measured twice weekly using a digital Vernier caliper. Tumor volume was calculated as [length×width^2]/2. TGI was calculated as:
# % TGI={(TV ControlFinal−TV ControlInitial)−(TV TreatedFinal−TV TreatedInitial)}×100
# (§1) At the end of the study, brain and plasma samples were collected for drug concentration. Tumor tissues were collected for immunohistochemistry, Western blot, and bioanalysis. Statistical analysis of tumor growth in the control and treated groups was performed by Student's T test using GraphPad Prism (Ver. 5.03).
# [4] = Plasma vs tumor PK in MDA-MB-231 xenograft mice; type: in vivo, athymic nude mice
# Method: FIGS. 10A and 10B are graphs showing plasma (FIG. 10A) and tumor (FIG. 10B) concentrations of VMY-BC-1 in MDA-MB-231 xenograft mice administered 75 mg/kg VMY-BC-1.
# as §1
# The impact of VMY-BC-1 on autophagy proteins in tumor tissue was also investigated. […] Finally, as shown in Table 4 and FIGS. 10A and 10B, VMY-BC-1 had 3-fold higher drug concentration (Cmax) in tumors than in plasma.
# ULK1 [5] = test: Western blot of autophagy proteins in U87 cells; type: cell-based; details: 10 μM, 12-48 hours
# Method: FIG. 14 is a Western blot of autophagy proteins in U87 GBM cells treated with vehicle (control), VMY-BC-1, or Rapamycin. Western blot is shown for p-ULK1, LC3 A/B, and cleaved PARP.
# The effect of VMY-BC-1 on autophagy-related proteins in U87 cells was tested. Protein extracts were made from cells treated with vehicle control, VMY-BC-1 (10 μM), or rapamycin (200 nM) for 12-48 hours.
# wild-type C. elegans = test: C. elegans lifespan; type: in vivo
# Method: Synchronized populations of wild-type L1 C. elegans hatched overnight were transferred to agar plates followed by VMY-BC-1 was added freshly from a 5 mM stock to the NGM media. Water was used as control. The L4 population of worms was randomly split to control or treatment groups in a density of about 20-30 worms per 6 cm plate dish.
# The first day of adulthood was considered day one. In all the experiments with late-onset administration of VMY-BC-1, synchronized L4 animals were moved to the media supplemented with 5′-fluorodeoxyuridine (FUDR, Cayman chemicals) at a final concentration of 1 μM for 2 days to prevent reproduction, then were moved to FUDR-free NGM plates until the final treatments at day 10. The animals that crawled off the plate, ruptured, or died from internal hatching were censored. Worms were transferred to fresh plates every day after reaching adulthood, and every 2 days after reaching 10 days of age. Prodding test was used to count the number of dead worms. Survival curve was plotted using Prism 7 and the significance of the curves calculated by Log-rank (Mantel-Cox) test.
# Synchronized populations of polyQ-expressing C. elegans were grown for 72 hours on media containing 1 μM VMY-BC-1. PolyQ aggegrative vacuoles were detected using confocal microscopy. PolyQ aggregations were decreased compared to vehicle (DMSO) (FIG. 21A). […]
# [6] = athymic nude, mouse, Plasma, oral 75 mg/kg
# [7] = athymic nude, mouse, Tumor, oral 75 mg/kg
smiles,measurement,setting,value
COc1ccc(/C=C/c2cc(OC)cc(B(O)O)c2)cc1 [VMY-BC-1],TNBC cell invasion,MDA-MB-231 cells,significantly inhibited TNBC cell invasion in a time-dependent manner
same,Autophagy proteins and phosphorylation of ULK1 and LC3 A/B (Western blot),ULK1 [1],increasing amounts of autophagy proteins over time as well as increased phosphorylation of ULK1 and LC3 A/B
same,Plasma clearance,[2]; 1 mg/kg intravenously,50 % of hepatic blood flow
same,half-life,"[2]; male, CD1, mouse, plasma, iv, 1 mg/kg intravenously, read-out: Elimination half-life (converted)",~1 h
same,Vd,"[2]; male, CD1, mouse, plasma, iv, 1 mg/kg intravenously, read-out: Volume of distribution",2.4 L/kg
same,bioavailability,"[2]; male, CD1, mouse, plasma, 25 mg/kg oral, read-out: Oral suspension bioavailability F (%)",> 100%
same,Cmax,"[2]; male, CD1, mouse, plasma, oral, dose not given, read-out: Mean maximum concentration (Cmax)",3060 ng/mL
same,Tmax,"[2]; male, CD1, mouse, plasma, oral, read-out: Time to maximum concentration (Tmax)",1 to 2 h
same,Increase in Cmax,[2]; oral dose 25 to 100 mg/kg,approximately 5 fold
same,Increase in plasma exposures,[2]; oral dose 25 to 100 mg/kg,~7 fold
same,Body weight,[3]; 75 mg/kg PO daily for 14 days,without any apparent change in body weight
same,Tumor growth inhibition,[3]; 75 mg/kg PO daily for 14 days,approximately 30%
same,Apoptosis by TUNEL staining,"[3]; tumor tissue, 75 mg/kg PO",significant increase in apoptosis
same,Reduction in Ki67 proliferation marker vs control,"[3]; tumor tissue, 75 mg/kg PO",50%
same,Phospho-ULK1 and LC3 protein expression in tumors,"[3]; tumor tissue, 24 hours after treatment",upregulated
same,Drug levels in tumor vs plasma,[4]; 75 mg/kg oral,higher VMY-BC-1 drug levels in tumor than in plasma
same,AUCextrap,"[4]; Plasma, oral 75 mg/kg",0.34%
same,AUCextrap,"[4]; Tumor, oral 75 mg/kg",7.48%
same,AUCinf,"[4]; Tumor, oral 75 mg/kg",41005.56 ng·h/g
same,AUClast,"[4]; Tumor, oral 75 mg/kg",37936.36 ng·h/g
same,Kp,"[4]; athymic nude, mouse, tumor and plasma, 75 mg/kg oral, read-out: Cmax in tumors relative to plasma",3
same,AUC(0-inf),[4]; [6],32300 ng·h/mL
same,AUC(0-t),[4]; [6],32200 ng·h/mL
same,Cmax,[4]; [6],4530 ng/mL
same,MRT last,[4]; [6],5.76 h
same,Tmax,[4]; [6],0.5 h
same,half-life,[4]; [6],3.15 h
same,Cmax,[4]; [7],13600 ng/g
same,MRT last,[4]; [7],1.94 h
same,Tmax,[4]; [7],1 h
same,half-life,[4]; [7],1.52 h
same,Autophagy proteins and phosphorylation of ULK1 and LC3 A/B (Western blot),ULK1 [5],increasing amounts of autophagy proteins over time as well as increased phosphorylation of ULK1 and LC3 A/B
same,Maximal median lifespan extension,wild-type C. elegans; 1 μM,~25%
same,Lifespan,wild-type C. elegans; 0.1 to 10 μM,dose-dependent lifespan extension
